From patent US10981926B2 (Janssen Pharmaceutica NV, priority 2016, dated 2021) come the findings set out here.

Bounds are passed on as bounds.

Format in all cases: cell-based
In assay [1] the target is T1, wild-type Androgen Receptor (AR-wt) (Homo sapiens (Human), UniProt P10275). The experiment in a line: LNCaP-AR-wt ANT reporter assay (antagonist mode). Conditions: for IC50: read-out: LNCaP-AR-wt ANT pIC50 (converted); for Emax: read-out: LNCaP-AR-wt ANT MAX % Inh. In general terms: In a reporter assay the amount or activity of a reporter protein is the signal.
T1 sequence (P10275 whole entry): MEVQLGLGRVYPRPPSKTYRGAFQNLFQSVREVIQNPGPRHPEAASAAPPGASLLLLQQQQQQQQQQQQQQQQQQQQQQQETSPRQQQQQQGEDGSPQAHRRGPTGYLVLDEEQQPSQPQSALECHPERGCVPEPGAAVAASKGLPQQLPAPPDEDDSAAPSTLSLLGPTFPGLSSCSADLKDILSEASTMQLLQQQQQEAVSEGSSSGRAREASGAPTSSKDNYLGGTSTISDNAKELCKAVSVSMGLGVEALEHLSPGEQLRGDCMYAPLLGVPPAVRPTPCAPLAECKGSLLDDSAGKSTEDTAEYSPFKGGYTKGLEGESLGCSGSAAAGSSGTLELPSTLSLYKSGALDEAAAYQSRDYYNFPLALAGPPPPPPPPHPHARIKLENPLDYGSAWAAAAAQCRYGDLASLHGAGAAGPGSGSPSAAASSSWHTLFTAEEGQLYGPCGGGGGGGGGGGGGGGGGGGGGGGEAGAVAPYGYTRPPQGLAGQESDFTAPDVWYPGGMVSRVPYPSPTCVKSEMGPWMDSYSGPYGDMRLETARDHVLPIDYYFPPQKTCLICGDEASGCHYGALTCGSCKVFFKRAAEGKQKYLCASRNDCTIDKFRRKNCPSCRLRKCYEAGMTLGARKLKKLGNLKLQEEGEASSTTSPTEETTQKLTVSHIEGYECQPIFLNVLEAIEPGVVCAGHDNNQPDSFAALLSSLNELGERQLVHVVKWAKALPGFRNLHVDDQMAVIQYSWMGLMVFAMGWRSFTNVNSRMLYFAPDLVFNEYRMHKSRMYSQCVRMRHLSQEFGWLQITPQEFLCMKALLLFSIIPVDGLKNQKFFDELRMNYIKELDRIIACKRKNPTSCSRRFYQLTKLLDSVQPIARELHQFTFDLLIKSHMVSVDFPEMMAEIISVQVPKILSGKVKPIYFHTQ
For assay [2], the target named is T1, wild-type Androgen Receptor (AR-wt). Nature of the assay: LNCaP-AR-wt AG reporter assay (agonist mode). Conditions: for EC50: read-out: LNCaP-AR-wt AG pEC50 (converted); for Emax: read-out: LNCaP-AR-wt AG MAX % Stim.
Assay [3] deals with T2, F876L mutant Androgen Receptor (AR-F876L) (Homo sapiens (Human), UniProt P10275, F877L). The experiment in a line: LNCaP-AR-F876L ANT reporter assay (antagonist mode). The conditions noted are these: for IC50: read-out: LNCaP-AR-F876L ANT pIC50 (converted); for Emax: read-out: LNCaP-AR-F876L ANT MAX % Inh.
T2 sequence (P10275 whole entry F877L): as the sequence (P10275 whole entry) above, with F877L counted along it
Assay [4] addresses T2, F876L mutant Androgen Receptor (AR-F876L). The experiment in a line: LNCaP-AR-F876L AG reporter assay (agonist mode). Conditions: for EC50: read-out: LNCaP-AR-F876L AG pEC50 (converted); for Emax: read-out: LNCaP-AR-F876L AG MAX % Stim.
[5] abbreviates: antagonist mode, pIC50 = −Log10(IC50 in Molar).
Where [6] appears, read: maximum % inhibition of R1881 control response over the tested concentration range.
The mark [7] stands for this setting: agonist mode, pEC50 = −Log10(EC50 in Molar).
Where [8] appears, read: maximum % stimulation (agonist response) over the tested concentration range.
Setting [9] is: antagonist mode, maximum % inhibition of R1881 control response over tested concentration range.
Where [10] appears, read: agonist mode, maximum % stimulation over tested concentration range.

Turning to `CN1CCC[C@H](CNC(=O)c2ccc(N3C(=S)N(c4cnc(C#N)c(C(F)(F)F)c4)C(=O)C34CCC4)cc2)C1` [Cpd 184, 4-[6-[6-cyano-5-(trifluoromethyl)-3-pyridyl]-5-oxo-7-thioxo-6,8-diazaspiro[3.4]octan-8-yl]-N-[[(3R)-1-methyl-3-piperidyl]methyl]benzamide], the IC50 in assay [1] (setting [5]) is 813 nM; in assay [3] (setting [5]), 447 nM. Moreover, the Emax is 100% in assay [1] (setting [6]), 0.2% in assay [2] (setting [8]), 99.6% in assay [3] (setting [6]) and 0.4% in assay [4] (setting [8]). The EC50 in assay [2] (setting [7]) and in assay [4] (setting [7]) was > 15.1 µM throughout.

Take `CN1CCC[C@H](CNC(=O)c2ccc(N3C(=S)N(c4cnc(C#N)c(C(F)(F)F)c4)C(=O)C34CCC4)cc2F)C1` [Cpd 203, 4-[6-[6-cyano-5-(trifluoromethyl)-3-pyridyl]-5-oxo-7-thioxo-6,8-diazaspiro[3.4]octan-8-yl]-2-fluoro-N-[[(3R)-1-methyl-3-piperidyl]methyl]benzamide]: the Emax in assay [1] (setting [9]) is 102%; in assay [2] (setting [10]) it was -0.1%; in assay [3] (setting [9]), 100%; in assay [4] (setting [10]) it was 0%. Moreover, the IC50 was 891 nM in assay [1] (setting [5]) and 562 nM in assay [3] (setting [5]). The EC50 in assay [2] (setting [7]) and in assay [4] (setting [7]) was > 15.1 µM in each case.

As for `CN1CCN(Cc2ccc(N3C(=S)N(c4cnc(C#N)c(Cl)c4)C(=O)C34CCC4)cc2)CC1` [Cpd 219, 3-chloro-5-[8-[4-[(4-methylpiperazin-1-yl)methyl]phenyl]-5-oxo-7-thioxo-6,8-diazaspiro[3 4]octan-6-yl]pyridine-2-carbonitrile], the Emax was determined as 102% in assay [1] (setting [9]), 0.3% in assay [2] (setting [10]), 101% in assay [3] (setting [9]) and 0.2% in assay [4] (setting [10]). The figures for the IC50 in assay [1] (setting [5]) and in assay [3] (setting [5]) were 372 nM and 347 nM, respectively. In addition, the EC50 in assay [2] (setting [7]) and in assay [4] (setting [7]) was > 15.1 µM in each case.

Turning to `N#Cc1ncc(N2C(=O)C3(CCC3)N(c3ccc(C4CC5CCC(C4)N5)cc3)C2=S)cc1C(F)(F)F` (centres unmarked) [Cpd 123, 5-(5-(4-(8-azabicyclo[3.2.1]octan-3-yl)phenyl)-8-oxo-6-thioxo-5,7-diazaspiro[3.4]octan-7-yl)-3-(trifluoromethyl)picolinonitrile], in assay [1] (setting [5]), the “LNCaP-AR-wt ANT pIC50” value amounted to 5.64. The Emax in assay [1] (setting [6]) is 103%; in assay [2] (setting [8]), 0.3%; in assay [3] (setting [6]) it was 102%; in assay [4] (setting [8]), 0.2%. Moreover, in assay [2] (setting [7]), the “LNCaP-AR-wt AG pEC50” value is <4.82. Moreover, the “LNCaP-AR-F876L ANT pIC50” value in assay [3] (setting [5]) turned out to be 6.03. Further, the “LNCaP-AR-F876L AG pEC50” value in assay [4] (setting [7]) is on record as <4.82.

Take `CC(C)(C)OC(=O)N1CCN(Cc2ccc(N3C(=S)N(c4cnc(C#N)c(C(F)(F)F)c4)C(=O)C34CCC4)cc2)CC1` [Cpd 47, tert-butyl 4-[[4-[6-[6-cyano-5-(trifluoromethyl)-3-pyridyl]-5-oxo-7-thioxo-6,8-diazaspiro[3.4]octan-8-yl]phenyl]methyl]piperazine-1-carboxylate]: the IC50 in assay [1] (setting [5]) is 316 nM; in assay [3] (setting [5]) it was 145 nM. Moreover, the Emax came to 100% in assay [1] (setting [6]), 0.7% in assay [2] (setting [8]), 100% in assay [3] (setting [6]) and 0.5% in assay [4] (setting [8]). Moreover, the EC50 in assay [2] (setting [7]) and in assay [4] (setting [7]) was > 15.1 µM throughout.

For `CN1CCC(c2nc3cc(N4C(=S)N(c5cnc(C#N)c(C(F)(F)F)c5)C(=O)C45CCC5)ccc3[nH]2)CC1` [Cpd 256, 5-[8-[2-(1-methyl-4-piperidyl)-1H-benzimidazol-5-yl]-5-oxo-7-thioxo-6,8-diazaspiro[3.4]octan-6-yl]-3-(trifluoromethyl)pyridine-2-carbonitrile], the Emax in assay [1] (setting [9]) amounted to 95.9%; in assay [2] (setting [10]), 0.4%; in assay [3] (setting [9]), 96.8%; in assay [4] (setting [10]) it was 0.6%. For the same compound, the IC50 was 4790 nM in assay [1] (setting [5]) and 1350 nM in assay [3] (setting [5]). For the same compound, the EC50 in assay [2] (setting [7]) and in assay [4] (setting [7]) was > 15.1 µM in each case.

`CN1CCc2cc(N3C(=S)N(c4cnc(C#N)c(C(F)(F)F)c4)C(=O)C34CCC4)ccc2C1` [Cpd 125, 5-[8-(2-methyl-3,4-dihydro-1H-isoquinolin-6-yl)-5-oxo-7-thioxo-6,8-diazaspiro[3.4]octan-6-yl]-3-(trifluoromethyl)pyridine-2-carbonitrile]: the results for the IC50 in assay [1] (setting [5]) and in assay [3] (setting [5]) were 2690 nM and 1580 nM, respectively. Also, the Emax came out at 99.5% in assay [1] (setting [6]), 0.6% in assay [2] (setting [8]), 98.1% in assay [3] (setting [6]) and 0% in assay [4] (setting [8]). The EC50 in assay [2] (setting [7]) and in assay [4] (setting [7]) was > 15.1 µM in each case.

Take `N#Cc1ncc(N2C(=O)C3(CCC3)N(c3ccc(C(=O)NC[C@@H]4CCCNC4)c(F)c3)C2=S)cc1C(F)(F)F` [Cpd 202, 4-[6-[6-cyano-5-(trifluoromethyl)-3-pyridyl]-5-oxo-7-thioxo-6,8-diazaspiro[3.4]octan-8-yl]-2-fluoro-N-[[(3R)-3-piperidyl]methyl]benzamide]: the Emax in assay [1] (setting [9]) was 102%; in assay [2] (setting [10]), -0.1%; in assay [3] (setting [9]), 101%; in assay [4] (setting [10]), 0%. Besides, the IC50 in assay [1] (setting [5]) is 1100 nM; in assay [3] (setting [5]), 603 nM. Moreover, the EC50 in assay [2] (setting [7]) and in assay [4] (setting [7]) was > 15.1 µM in each case.

`COc1cc(N2C(=O)C3(CCC3)N(c3ccc4c(cnn4CCO)c3)C2=S)cnc1C#N` [Cpd 167, 5-[8-[1-(2-hydroxyethyl)indazol-5-yl]-5-oxo-7-thioxo-6,8-diazaspiro[3.4]octan-6-yl]-3-methoxy-pyridine-2-carbonitrile]: the IC50 in assay [1] (setting [5]) was 832 nM; in assay [3] (setting [5]), 288 nM. Further, the Emax in assay [1] (setting [6]) was 101%; in assay [2] (setting [8]), -0.2%; in assay [3] (setting [6]), 102%; in assay [4] (setting [8]) it was 0%. The EC50 in assay [2] (setting [7]) and in assay [4] (setting [7]) was > 15.1 µM throughout.

Turning to `N#CCN1CCC(Oc2ccc(N3C(=S)N(c4cnc(C#N)c(Cl)c4)C(=O)C34CCC4)cc2)CC1` [Cpd 51, 3-chloro-5-[8-[4-[[1-(cyanomethyl)-4-piperidyl]oxy]phenyl]-5-oxo-7-thioxo-6,8-diazaspiro[3.4]octan-6-yl]pyridine-2-carbonitrile], the IC50 in assay [1] (setting [5]) is 53.7 nM; in assay [3] (setting [5]) it was 24.5 nM. In addition, the Emax in assay [1] (setting [6]) worked out at 98%; in assay [2] (setting [8]), 2.3%; in assay [3] (setting [6]) it was 101%; in assay [4] (setting [8]) it was 1.7%. Moreover, the EC50 in assay [2] (setting [7]) and in assay [4] (setting [7]) was > 15.1 µM each time.

For `C#CCN1CC(Oc2ccc(N3C(=S)N(c4cnc(C#N)c(C(F)(F)F)c4)C(=O)C34CCC4)cc2)C1` [Cpd 117, 5-(8-oxo-5-(4-((1-(prop-2-yn-1-yl)azetidin-3-yl)oxy)phenyl)-6-thioxo-5,7-diazaspiro[3.4]octan-7-yl)-3-(trifluoromethyl)picolinonitrile], the IC50 in assay [1] (setting [5]) is 97.7 nM; in assay [3] (setting [5]), 112 nM. The Emax came to 102% in assay [1] (setting [6]), 0% in assay [2] (setting [8]), 99.4% in assay [3] (setting [6]) and 0.9% in assay [4] (setting [8]). The EC50 in assay [2] (setting [7]) and in assay [4] (setting [7]) was > 15.1 µM in each case.

For the compound `CN1CCC(n2cc3ccc(N4C(=S)N(c5cnc(C#N)c(C(F)(F)F)c5)C(=O)C45CCC5)cc3n2)CC1` [Cpd 199, 5-[8-[2-(1-methyl-4-piperidyl)indazol-6-yl]-5-oxo-7-thioxo-6,8-diazaspiro[3.4]octan-6-yl]-3-(trifluoromethyl)pyridine-2-carbonitrile], the Emax in assay [1] (setting [9]) is 88.9%; in assay [2] (setting [10]), -0.2%; in assay [3] (setting [9]) it was 102%; in assay [4] (setting [10]) it was 0.9%. For the same compound, the values for the IC50 in assay [1] (setting [5]) and in assay [3] (setting [5]) were 1620 nM and 1510 nM, respectively. The EC50 in assay [2] (setting [7]) and in assay [4] (setting [7]) was > 15.1 µM in each case.

As to `CN1CC[C@@H](Oc2ccc(N3C(=S)N(c4cnc(C#N)c(C(F)(F)F)c4)C(=O)C34CCC4)cc2)C[C@H]1CO` (racemic) [Cpd 226, 5-[8-(2SR,4RS)[4-[[2-(hydroxymethyl)-1-methyl-4-piperidyl]oxy]phenyl]-5-oxo-7-thioxo-6,8-diazaspiro[3.4]octan-6-yl]-3-(trifluoromethyl)pyridine-2-carbonitrile], the Emax in assay [1] (setting [9]) came out at 101%; in assay [2] (setting [10]), 0.4%; in assay [3] (setting [9]), 100%; in assay [4] (setting [10]), 0.2%. In addition, the IC50 was 60.3 nM in assay [1] (setting [5]) and 36.3 nM in assay [3] (setting [5]). Further, the EC50 in assay [2] (setting [7]) and in assay [4] (setting [7]) was > 15.1 µM in each case.
